Values of other authors as cited in patent US20090239822A1, “Process for the preparation of esters of diacerein with hyaluronic acid and pharmaceutical compositions containing such esters” (priority 2006, published 2009).

Conditions: rhein from the pro-drug diacerein

For `O=C(O)c1cc(O)c2c(c1)C(=O)c1cccc(O)c1C2=O` [rhein], the concentration in the synovial liquid is given as 1 to 10 µM.
